Test results: patent US4308267A, “7-[2-Alkoxyimino-2-(amino-thiazole)acetami do]-3-[1-(sulfaminoalkly)tetrazolthiomethyl]cephalosporins” (SmithKline Corporation, priority 1980, dated 1981)
In brackets after ≈: the same amount, converted by molar mass. Where a name gives a salt, the structure may show the parent alone.

What was measured:
[1] = test system: Staph. aureus HH 127; assay: minimum inhibitory concentration, in vitro screen (Table I, strain 1); type: cell-based; details: Staphylococcus aureus, HH127; Staph. aureus HH 127, lactamase producer
Excerpt: (§1) The compounds of this invention are useful as broad spectrum antibacterial agents against both Gram-positive and Gram-negative organisms. […] Data for 7-[syn-2-methoxyimino-2-(2-amino-4-thiazolyl)acetamido]cephalosporanic acid (cefatoxime) are also included for comparison.

[2] = test system: Staph. aureus 671; assay: minimum inhibitory concentration, in vitro screen (Table I, strain 2); type: cell-based; details: Staphylococcus aureus; Staph. aureus 671, lactamase producer
Excerpt: as §1

[3] = test system: Staph. aureus 674; assay: minimum inhibitory concentration, in vitro screen (Table I, strain 3); type: cell-based; details: Staphylococcus aureus
Excerpt: as §1

[4] = test system: Strep. faecalis HH 34358; assay: minimum inhibitory concentration, in vitro screen (Table I, strain 4); type: cell-based; details: Enterococcus faecalis, HH34358
Excerpt: as §1

[5] = test system: E. coli SK&F 12140; assay: minimum inhibitory concentration, in vitro screen (Table I, strain 5); type: cell-based; details: Escherichia coli
Excerpt: as §1

[6] = test system: E. coli 804; assay: minimum inhibitory concentration, in vitro screen (Table I, strain 6); type: cell-based; details: Escherichia coli; E. coli 804, lactamase producer
Excerpt: as §1

[7] = test system: Kleb. pneumoniae SK&F 4200; assay: minimum inhibitory concentration, in vitro screen (Table I, strain 7); type: cell-based; details: Klebsiella pneumoniae
Excerpt: as §1

[8] = test system: Kleb. pneumoniae SK&F 1200; assay: minimum inhibitory concentration, in vitro screen (Table I, strain 8); type: cell-based; details: Klebsiella pneumoniae
Excerpt: as §1

[9] = test system: Kleb. pneumoniae 982; assay: minimum inhibitory concentration, in vitro screen (Table I, strain 9); type: cell-based; details: Klebsiella pneumoniae; Kleb. pneumoniae 982, lactamase producer
Excerpt: as §1

[10] = test system: P. mirabilis PM-444; assay: minimum inhibitory concentration, in vitro screen (Table I, strain 10); type: cell-based; details: Proteus mirabilis, PM444
Excerpt: as §1

[11] = test system: Pseudo. aeruginosa HH 63; assay: minimum inhibitory concentration, in vitro screen (Table I, strain 11); type: cell-based; details: Pseudomonas aeruginosa, HH63
Excerpt: as §1

[12] = test system: Serratia marcescens ATCC 13880; assay: minimum inhibitory concentration, in vitro screen (Table I, strain 12); type: cell-based; details: ATCC13880
Excerpt: as §1

[13] = test system: Proteus morgani 179; assay: minimum inhibitory concentration, in vitro screen (Table I, strain 13); type: cell-based
Excerpt: as §1

[14] = test system: Enterobacter aerogenes ATCC 13048; assay: minimum inhibitory concentration, in vitro screen (Table I, strain 14); type: cell-based; details: Klebsiella aerogenes, ATCC13048
Excerpt: as §1

[15] = test system: Enterobacter cloacae 921; assay: minimum inhibitory concentration, in vitro screen (Table I, strain 15); type: cell-based
Excerpt: as §1

[16] = test system: Pseudo. aeruginosa 647; assay: minimum inhibitory concentration, in vitro screen (Table I, strain 16); type: cell-based; details: Pseudomonas aeruginosa
Excerpt: as §1

[17] = test system: E. coli 12140; assay: standard in vivo antibacterial test in mice, ED50 (Table 2); details: Escherichia coli
Excerpt: (§2) Table 2 sets forth ED50 's for Compound A, cefamandole and cefatoxime.

[18] = test system: S. aureus HH 127; assay: as above; details: Staphylococcus aureus
Excerpt: as §2

[19] = pharmacokinetics in mouse (Table 3); type: in vivo; details: for half-life: in vivo; for half-life / concentration at 2 h / Cmax / dose excreted: mouse, 20 mg/kg; for concentration at 2 h / Cmax: serum; for concentration at 2 h: read-out: Serum Level at 2 hrs.; for Cmax: read-out: Peak Serum Level; for dose excreted: urine, read-out: Urinary Recovery
[20] = in vitro; type: in vitro ADME; details: human serum proteins; read-out: Binding to Human Serum Proteins (converted)
[21] = test system: Gram-negative bacteria including those which are β-lactamase producers; assay: standard in vitro screens (general statement); type: cell-based; details: especially against Gram-negative bacteria including β-lactamase producers
Excerpt: as §1

[22] = test system: bacterial infections; assay: standard in vivo tests in mice (general statement)
Excerpt: as §2

Row | SMILES | MIC [1] | MIC [2] | MIC [3] | MIC [4] | MIC [5] | MIC [6] | MIC [7] | MIC [8] | MIC [9] | MIC [10] | MIC [11] | MIC [12] | MIC [13] | MIC [14] | MIC [15] | MIC [16] | half-life [19] | concentration at 2 h [19] | Cmax [19] | dose excreted [19] | further results
1 | Cn1nnnc1SCC1=C(C(=O)O)N2C(=O)[C@@H](NC(=O)[C@H](O)c3ccccc3)[C@H]2SC1 [Cefamandole] | 1.6 mg/L (≈ 3.46 µM) | 6.3 mg/L (≈ 13.6 µM) | ≤ 0.1 mg/L | 25 mg/L (≈ 54.1 µM) | 0.8 mg/L (≈ 1.73 µM) | > 100 mg/L | 1.6 mg/L (≈ 3.46 µM) | 0.4 mg/L (≈ 0.865 µM) | > 100 mg/L | 0.4 mg/L (≈ 0.865 µM) | > 100 mg/L | 12.5 mg/L (≈ 27 µM) | 1.6 mg/L (≈ 3.46 µM) | 1.6 mg/L (≈ 3.46 µM) | 3.1 mg/L (≈ 6.7 µM) | > 100 mg/L | 12 min | 1 µg/mL | 34 µg/mL | 45% | ED50 ([17]; * representative value): 0.9 mg/kg; ED50 ([18]; HH127, * representative value): 2.2 mg/kg; fraction unbound [20]: 0.39
2 | CO/N=C(\C(=O)N[C@@H]1C(=O)N2C(C(=O)O)=C(COC(C)=O)CS[C@H]12)c1csc(N)n1 [Cefatoxime, 7-[syn-2-methoxyimino-2-(2-amino-4-thiazolyl)acetamido]cephalosporanic acid] | 1.6 mg/L (≈ 3.51 µM) | 0.4 mg/L (≈ 0.878 µM) | 0.8 mg/L (≈ 1.76 µM) | > 100 mg/L | ≤ 0.1 mg/L | 0.2 mg/L (≈ 0.439 µM) | ≤ 0.1 mg/L | ≤ 0.1 mg/L | 0.2 mg/L (≈ 0.439 µM) | ≤ 0.1 mg/L | 6.3 mg/L (≈ 13.8 µM) | ≤ 0.1 mg/L | ≤ 0.1 mg/L | ≤ 0.1 mg/L | ≤ 0.1 mg/L | 3.1 mg/L (≈ 6.81 µM) | 27 min | < 1 µg/mL | 25 µg/mL | 13% | ED50 [17]: < 0.2 mg/kg; ED50 ([18]; HH127): 10.5 mg/kg; fraction unbound [20]: 0.61
3 | CO/N=C(\C(=O)N[C@@H]1C(=O)N2C(C(=O)O)=C(CSc3nnnn3CCNS(=O)(=O)O)CS[C@H]12)c1csc(N)n1 [Compound A, 7-[syn-2-methoxyimino-2-(2-amino-4-thiazolyl)acetamido]-3-[1-(2-sulfaminoethyl)tetrazo-5-ylthiomethyl]-3-cephem-4-carboxylic acid disodium salt] | 6.3 mg/L | 3.1 mg/L | 6.3 mg/L | > 100 mg/L | ≤ 0.1 mg/L | 0.4 mg/L | ≤ 0.1 mg/L | ≤ 0.1 mg/L | 1.6 mg/L | ≤ 0.1 mg/L | 12.5 mg/L | ≤ 0.1 mg/L | ≤ 0.1 mg/L | 0.2 mg/L | 0.2 mg/L | 6.3 mg/L | 114 min | 52 µg/mL | 78 µg/mL | 24% | ED50 [17]: 0.4 mg/kg; ED50 ([18]; HH127): 21 mg/kg; peak serum levels, serum levels at two hours and half-life ([19]; compared to cefatoxime and cefamandole): better for Compound A compared to cefatoxime and cefamandole; pharmacokinetic properties ([19]; general statement): unexpected improved pharmacokinetic properties; fraction unbound [20]: 0.3; activity in standard in vitro screens [21]: high activity; antibacterial activity in standard in vivo tests [22]: high antibacterial activity
